Legend:
Assay in all cases: in vitro DltA activity assay
[1] = molecular target: T1, D-alanine--D-alanyl carrier protein ligase (Enterococcus faecium (strain ATCC BAA-472 / TX0016 / DO), UniProt Q3XZT7)
T1 sequence (Q3XZT7 whole entry): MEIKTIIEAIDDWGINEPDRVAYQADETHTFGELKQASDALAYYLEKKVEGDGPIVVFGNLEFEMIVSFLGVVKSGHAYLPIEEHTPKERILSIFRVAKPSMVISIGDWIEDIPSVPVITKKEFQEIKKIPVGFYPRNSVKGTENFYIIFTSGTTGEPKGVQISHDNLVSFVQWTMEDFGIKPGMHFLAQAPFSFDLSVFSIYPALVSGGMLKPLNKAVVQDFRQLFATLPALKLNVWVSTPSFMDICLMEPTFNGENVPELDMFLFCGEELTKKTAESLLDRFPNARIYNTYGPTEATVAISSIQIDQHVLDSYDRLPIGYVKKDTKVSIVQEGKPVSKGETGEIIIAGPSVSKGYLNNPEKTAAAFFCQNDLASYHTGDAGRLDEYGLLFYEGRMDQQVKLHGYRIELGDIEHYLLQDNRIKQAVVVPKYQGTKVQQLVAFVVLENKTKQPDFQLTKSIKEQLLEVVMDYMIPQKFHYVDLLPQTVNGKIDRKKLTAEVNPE
Protocol: (§1) The assay buffer AB contained 50 mM Hepes pH8.0, 10 mM MgCl2, 50 mM KCl, 0.012% Triton-X100, 10 mM DTT and 100 nM Myelin-basic protein. The following components were added in a white polystyrene Costar plate up to a final volume of 30 μL: 3 μL DMSO, or inhibitor dissolved in DMSO and 27 μL DltA enzyme in AB. After 30 min of pre-incubation at room temperature, 30 μL of Substrates mix in AB were added in each well to a final volume of 60 μL. This reaction mixture was then composed of DltA (produced in house from S. aureus, E. faecalis, E. faecium and S. agalactiae), 0.5 mM D-Alanine (Sigma), 0.5-5 μM ATP (Sigma) and 0.05 u/ml inorganic pyrophosphatase (Sigma) in assay buffer. After typically 1-2 hours of incubation at room temperature (conversion rate around 30%), 30 μL of the revelation mix were added to a final volume of 90 μL, including the following constituents at the respective final concentrations: 10000 u/ml luciferase (Sigma), 30 μM D-luciferin (Sigma), 100 μM N-acetylcysteamine (Aldrich). Luminescence intensity was immediately measured on a Fluostar Optima (BMG) (excitation 360 nm, emission 520 nm) and converted into inhibition percentages. For IC50 determinations (Inhibitory Concentration 50%) the inhibitor was added at 6 to 10 different concentrations and the related inhibitions were fitted to a classical Langmuir equilibrium model using XLFIT (IDBS).

[2] = molecular target: T2, D-alanine--D-alanyl carrier protein ligase (Enterococcus faecalis (strain ATCC 700802 / V583), UniProt Q830N0)
T2 sequence (Q830N0 whole entry): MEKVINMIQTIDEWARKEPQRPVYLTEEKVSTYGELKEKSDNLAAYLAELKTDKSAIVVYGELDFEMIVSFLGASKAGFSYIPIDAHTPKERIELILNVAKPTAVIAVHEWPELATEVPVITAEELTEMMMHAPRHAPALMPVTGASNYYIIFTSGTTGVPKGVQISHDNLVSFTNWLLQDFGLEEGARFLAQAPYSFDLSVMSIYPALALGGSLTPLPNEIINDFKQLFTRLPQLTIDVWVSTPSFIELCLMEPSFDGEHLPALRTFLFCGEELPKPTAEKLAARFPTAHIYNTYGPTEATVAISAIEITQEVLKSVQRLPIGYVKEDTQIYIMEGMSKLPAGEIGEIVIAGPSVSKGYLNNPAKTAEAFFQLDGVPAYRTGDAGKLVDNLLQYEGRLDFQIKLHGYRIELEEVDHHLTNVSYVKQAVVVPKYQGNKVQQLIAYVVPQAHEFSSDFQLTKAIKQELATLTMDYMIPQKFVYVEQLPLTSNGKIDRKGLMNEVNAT
Protocol: as §1

[3] = molecular target: T3, D-alanine--D-alanyl carrier protein ligase (Staphylococcus aureus, UniProt Q2FZW6)
T3 construct: gene dltA
T3 sequence (Q2FZW6 whole entry, looked up): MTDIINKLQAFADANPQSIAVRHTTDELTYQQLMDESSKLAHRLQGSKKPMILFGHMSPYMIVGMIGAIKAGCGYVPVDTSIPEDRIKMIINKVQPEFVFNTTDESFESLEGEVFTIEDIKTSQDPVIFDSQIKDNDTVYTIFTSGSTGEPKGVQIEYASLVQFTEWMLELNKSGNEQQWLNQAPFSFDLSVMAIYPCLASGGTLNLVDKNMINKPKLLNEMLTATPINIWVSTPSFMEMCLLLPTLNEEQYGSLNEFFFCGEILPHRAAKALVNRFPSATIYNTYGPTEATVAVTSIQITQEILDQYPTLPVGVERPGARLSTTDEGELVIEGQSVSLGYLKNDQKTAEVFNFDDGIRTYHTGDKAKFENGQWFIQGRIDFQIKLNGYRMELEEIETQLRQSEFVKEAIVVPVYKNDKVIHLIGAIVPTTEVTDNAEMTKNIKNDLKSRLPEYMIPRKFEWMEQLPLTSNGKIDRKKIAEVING
Protocol: as §1

C[C@H]1CCCC(n2cnc3cc(-c4cc(N(C)CCN(C)C)c(C(N)=O)c5[nH]cnc45)ccc32)C1 (mixture of isomers) showed an IC50 [1] of 25 nM and an IC50 [2] of 4.3 nM.
Molecule COc1cc(-c2ccc3c(c2)ncn3C2CCCCC2)c2nc[nH]c2c1C(N)=O [US10301305, Example 88] has an IC50 [1] of 79 nM, an IC50 [2] of 26 nM and an IC50 [3] of 33 nM.
CCn1cnc2cc(-c3cc(OCCN(C)C)c(C(N)=O)c4[nH]cnc34)ccc21 [US10301305, Example 198] showed an IC50 [1] of 73 nM, an IC50 [2] of 8.3 nM and an IC50 [3] of 6.8 nM.

— BindingDB's records for patent US10301305 (Mutabilis, 2019)
